Test results from patent publication US12570614B2, “Phenyl amino pyrimidine compounds and uses thereof” (GlaxoSmithKline LLC, priority 2007, dated 2026).
Where two headings read alike, the source gives them in different places.

What was measured:
human JAK2 = human JAK2 (Homo sapiens (Human), UniProt O60674); experiment: JAK2 kinase domain Alphascreen enzyme screening; assay type: biochemical; conditions: read-out: JAK2_IC50_nM
Method: (§1) For screening purposes, compounds (in 100% DMSO) were warmed at 37° C. for at least 20 minutes before use. A […] stock was initially made in assay buffer, where the final concentration of DMSO was 0.3%. The stocks were then diluted in 384 well Optiplates (Packard) where the final concentration of the compound was 5 μM.
The kinase domain of human JAK2 was amplified from U937 mRNA using the polymerase chain reaction with the following primers: […]
The JAK2 PCR products were cloned into the pDest20 destination vector (Gibco). The JAK2 plasmid was then transformed into competent DH10Bac cells (Gibco), and the recombinant baculovirus was prepared via Sf9 insect cell transfection.
(§2) Baculovirus preparations from each of the JAK family members were infected into one litre of […] (Spodoptera frugiperda) cells (Invitrogen) grown in SF900II serum free medium (Invitrogen) to a cell density of approximately 2×10^6 cells/ml. Cells were infected with virus at a cell culture to virus stock ratio of 20:1. Cells were harvested and lysed 48 hours post infection. The GST-tagged JAK kinase domains were purified by affinity chromatography on a GSH agarose column (Scientifix).
Alphascreen phosphotyrosine acceptor beads followed by streptavidin donor beads at a concentration of 1/100 in stop buffer were added to each well under subdued light and incubated for 2-3 hours. The Alphascreen plates were read on a Packard Fusion Alpha instrument

human JAK3 = human JAK3 (Homo sapiens (Human), UniProt P52333); experiment: JAK3 kinase domain Alphascreen enzyme screening; assay type: biochemical; conditions: read-out: JAK3_ IC50_nM
Method: as §1
The kinase domain of human JAK3 was amplified from U937 mRNA using the polymerase chain reaction with the following primers: […]
The JAK3 PCR products were cloned into the pDest20 destination expression vector (Gibco). The JAK3 plasmid was then transformed into competent DH10Bac cells (Gibco), and the recombinant baculovirus was prepared via Sf9 insect cell transfection.
as §2
The compounds were then incubated with substrate in the presence of either […] ATP for 60 or 90 minutes. […] (final concentration 111 μM) or substrate-2 substrate with the sequence biotin-[…] [SEQ ID NO: 16] (final concentration 133 μM). Alphascreen phosphotyrosine acceptor beads followed by streptavidin donor beads at a concentration of 1/100 in stop buffer were added to each well under subdued light and incubated for 2-3 hours. The Alphascreen plates were read on a Packard Fusion Alpha instrument

[1] = tested on: BaF3 TELJAK cells (BafT_J2); experiment: Cellular screening, BaF3 TELJAK2 cells (Alamar Blue); assay type: cell-based; conditions: Mus musculus
Method: (§3) For screening purposes, compounds were diluted in 96 well plates at a concentration of 20 μM. Plates were warmed at 37° C. for 30 minutes before the assay was performed.
A TEL/Jak2 fusion was generated by digestion of the TELPCR product with BamH I/Sal I restriction enzymes, digestion of the JAK2 PCR product with Sal I/Not I restriction enzymes, followed by ligation and subcloning of the ligation product into the mammalian expression Vector pTRE 2 (Clontech), which was prepared by digestion with BamH I—Not I restriction enzymes, to give the TEL/Jak2 fusion plasmid pTELJAK2.
(§4) The growth factor dependent myelomonocytic cell line BaF3 bearing the pTET-off plasmid (Clontech) was transfected with either pTELJAK2 or pTELJAK3, and the transfected cells were selected for growth-factor independent cell growth. The BaF3 wild-type cells were cultured in DMEM containing 10% FCS, 10% WEHI 3B conditioned medium. The BaF3 TELJAK cells ([…]) were cultured in DMEM 10% Tet-System Approved FBS (without WEHI 3B conditioned medium).
(§5) Cell suspensions were prepared by harvesting cells from culture (the cells used in this test were in late log phase growth with high viability.) Cells were diluted in the appropriate growth medium, as described above, to 1.1× final concentration (from 50,000 cell/mL to 200,000 cell/mL, depending on cell line).
(§6) Compounds to be tested were added (10 μL, 10× final concentration) to a flat bottomed 96-well plate. The cellular suspension (90 μL per well) was then added, and the plate incubated for 48-72 hr at 37° C., 5% CO2. Alamar Blue 10 μL per well was added and the plates returned to the incubator for a further 4-6 hours.
(§7) Result are given in table 2 where +++ is <1 μM, ++ is <5 μM and + is <20 μM

BaF3 wild-type cells = experiment: Cellular screening, BaF3 wild-type cells (Alamar Blue); assay type: cell-based; conditions: Mus musculus, 48-72 hr incubation, read-out: BAF3wt_IC50_μM
Method: as §3, §4, §5
as §6, with “hours. The plates were then read at 544 nm.” for “hours.”
as §7

CTLL2 = experiment: Cellular screening, CTLL2 cells (Alamar Blue); assay type: cell-based; conditions: Mus musculus, CTLL-2; 48-72 hr incubation; read-out: CTLL2_IC50_μM
Method: as §3, §5
as §6, with “hours. The plates were then read at 544 nm.” for “hours.”
as §7

[2] = BaF3, 48-72 hr incubation, read-out: BafT_J2_IC50_μM

Sequence of human JAK2 (O60674 849-1124): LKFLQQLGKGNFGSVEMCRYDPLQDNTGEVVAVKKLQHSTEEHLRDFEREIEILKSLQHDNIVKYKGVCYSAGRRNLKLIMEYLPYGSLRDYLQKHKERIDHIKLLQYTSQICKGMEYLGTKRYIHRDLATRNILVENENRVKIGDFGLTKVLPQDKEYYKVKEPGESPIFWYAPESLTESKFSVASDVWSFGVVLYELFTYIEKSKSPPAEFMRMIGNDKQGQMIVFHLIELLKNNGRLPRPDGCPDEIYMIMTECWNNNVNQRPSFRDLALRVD
Sequence of human JAK3 (P52333 822-1111): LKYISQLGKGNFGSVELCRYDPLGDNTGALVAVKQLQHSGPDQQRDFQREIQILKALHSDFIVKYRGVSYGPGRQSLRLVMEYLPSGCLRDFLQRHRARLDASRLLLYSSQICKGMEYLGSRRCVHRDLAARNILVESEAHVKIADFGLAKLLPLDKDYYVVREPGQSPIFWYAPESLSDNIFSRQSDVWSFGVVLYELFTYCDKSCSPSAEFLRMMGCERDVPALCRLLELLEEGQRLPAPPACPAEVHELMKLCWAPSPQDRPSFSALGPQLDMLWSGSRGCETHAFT

Row | SMILES | IC50 (human JAK2) [µM] | IC50 (human JAK3) [µM] | IC50 [1, 2] [µM] | IC50 (BaF3 wild-type cells) [µM] | IC50 (CTLL2) [µM] | IC50 ([1]; BaF3, read-out: BafT_J2_IC50_μM) [µM]
1 | N#CCNC(=O)c1ccc(-c2ccnc(Nc3ccc(C(=O)N4CCC(N5CCCC5)CC4)cc3)n2)cc1 [Compound 50, N-(cyanomethyl)-4-(2-(4-(4-(pyrrolidin-1-yl)piperidine-1-carbonyl)phenyl-amino)pyrimidin-4-yl)benzamide] | < 0.1 | < 1 | < 5 | < 20 | > 20 | –
2 | N#CCNC(=O)c1ccc(-c2nc(Nc3ccc(N4CCOCC4)cc3)ncc2Br)cc1 [Compound 65, 4-(5-bromo-2-(4-morpholinophenyl-amino)pyrimidin-4-yl)-N-(cyanomethyl) benzamide] | < 0.1 | < 0.1 | < 1 | < 1 | < 1 | –
3 | CCN1CCC(Oc2ccc(Nc3nccc(-c4ccc(C(=O)NCC#N)cc4)n3)cc2)CC1 [Compound 80, N-(cyanomethyl)-4-(2-(4-(1-ethylpiperidin-4-yloxy)phenylamino)pyrimidin-4-yl)benzamide] | < 0.1 | < 0.5 | < 1 | < 5 | < 5 | –
4 | CS(=O)(=O)N(CC#N)c1ccc(-c2ccnc(Nc3ccc(N4CCOCC4)c(F)c3)n2)cc1 [Compound 81, N-(cyanomethyl)-N-(4-(2-(3-fluoro-4-morpholinophenyl-amino)pyrimidin-4-yl)phenyl)methane-sulfonamide] | < 0.1 | > 1 | < 1 | < 5 | < 5 | –
5 | N#Cc1cc(-c2ccnc(Nc3ccc(N4CCOCC4)cc3)n2)ccc1O [Compound 9, 2-hydroxy-5-(2-(4-morpholinophenyl-amino)pyrimidin-4-yl)benzonitrile] | < 0.5 | < 0.5 | < 5 | < 5 | < 5 | –
6 | CC(=O)N1CCN(c2ccc(Nc3nccc(-c4ccc(C(=O)NCC#N)cc4)n3)cc2)CC1 [Compound 55, 4-(2-(4-(4-acetylpiperazin-1-yl)phenylamino)pyrimidin-4-yl)-N-(cyanomethyl) benzamide] | < 0.1 | < 0.1 | < 1 | < 5 | < 5 | –
7 | C=CCOCc1cc(Nc2nccc(-c3ccc(C(=O)NCC#N)cc3)n2)ccc1N1CCOCC1 [Compound 79] | < 0.1 | < 0.5 | < 1 | < 1 | < 5 | –
8 | N#CCNC(=O)c1ccc(-c2nc(Nc3ccc(N4CCOCC4)cc3)ncc2F)cc1 [Compound 93, N-(cyanomethyl)-4-(5-fluoro-2-(4-morpholinophenyl-amino)pyrimidin-4-yl)benzamide] | < 0.1 | < 0.5 | – | < 1 | < 1 | < 1

More lines, main results first:

Row | IC50 (human JAK2) [µM] | IC50 (human JAK3) [µM] | IC50 [1, 2] [µM] | IC50 (BaF3 wild-type cells) [µM] | SMILES | IC50 (CTLL2) [µM] | IC50 ([1]; BaF3, read-out: BafT_J2_IC50_μM) [µM]
9 | < 0.5 | < 1 | < 5 | > 20 | O=C(NCc1cccnc1)c1ccc(-c2ccnc(Nc3ccc(N4CCOCC4)cc3)n2)cc1 [Compound 18, 4-(2-(4-morpholinophenyl-amino)pyrimidin-4-yl)-N-(pyridin-3-ylmethyl)benzamide] | < 20 | –
10 | < 0.5 | < 1 | < 5 | < 20 | O=C(NCc1ccncc1)c1ccc(-c2ccnc(Nc3ccc(N4CCOCC4)cc3)n2)cc1 [Compound 17, 4-(2-(4-morpholinophenyl-amino)pyrimidin-4-yl)-N-(pyridin-4-ylmethyl)benzamide] | > 20 | –
11 | < 0.1 | < 0.5 | < 20 | < 5 | N#CCNC(=O)CNC(=O)c1ccc(-c2ccnc(Nc3ccc(N4CCOCC4)cc3)n2)cc1 [Compound 34, N-(2-(cyanomethylamino)-2-oxoethyl)-4-(2-(4-morpholinophenyl-amino)pyrimidin-4-yl)benzamide] | < 5 | –
